Drawing on patent publication US12686665B2, “Bicyclic fused ring derivative or salt thereof and pharmaceutical composition comprising same” (YUHAN CORPORATION, priority 2021, dated 2026), this text covers IC50 for 24 compounds.

Structures can show the parent of a compound that is named as a salt.

This experiment addresses T1, recombinant human Lysyl Oxidase-Like 2 (LOXL2) (Homo sapiens, UniProt Q9Y4K0).
T1 construct: purchased R&D systems
T1 sequence (Q9Y4K0 26-774): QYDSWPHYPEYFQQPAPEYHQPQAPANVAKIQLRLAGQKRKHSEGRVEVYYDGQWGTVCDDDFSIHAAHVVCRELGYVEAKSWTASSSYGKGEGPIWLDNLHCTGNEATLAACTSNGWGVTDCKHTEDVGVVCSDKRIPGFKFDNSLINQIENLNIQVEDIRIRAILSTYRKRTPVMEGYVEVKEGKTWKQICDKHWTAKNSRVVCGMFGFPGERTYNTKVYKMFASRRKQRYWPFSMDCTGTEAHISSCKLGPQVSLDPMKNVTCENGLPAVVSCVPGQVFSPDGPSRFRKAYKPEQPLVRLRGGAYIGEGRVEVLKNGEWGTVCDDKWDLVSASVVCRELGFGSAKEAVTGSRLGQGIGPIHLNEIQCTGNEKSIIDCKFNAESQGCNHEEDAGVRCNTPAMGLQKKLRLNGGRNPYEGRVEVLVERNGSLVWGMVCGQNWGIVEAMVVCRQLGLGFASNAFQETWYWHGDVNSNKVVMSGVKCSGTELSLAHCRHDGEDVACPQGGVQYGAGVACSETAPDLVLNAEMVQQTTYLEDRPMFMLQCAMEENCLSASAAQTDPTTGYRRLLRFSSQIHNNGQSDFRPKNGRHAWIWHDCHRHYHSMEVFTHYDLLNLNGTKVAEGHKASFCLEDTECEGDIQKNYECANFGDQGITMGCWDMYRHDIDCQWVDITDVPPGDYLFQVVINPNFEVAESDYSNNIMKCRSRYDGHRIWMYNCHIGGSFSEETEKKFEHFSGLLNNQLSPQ
The experiment is described as follows: Amplex Red HRP-coupled amine oxidase assay, recombinant human LOXL2. The experiment is classed as biochemical. The settings on record: 60 min incubation with enzyme at 37° C., putrescine substrate, read-out: Inhibitory activity (IC50, nM) human LOXL2. The procedure:
The activities of the compounds according to the present invention against recombinant human Lysyl Oxidase-Like 2 (recombinant human LOXL2, R&D systems) were evaluated by measuring the levels of hydrogen peroxide in the HRP (horseradish peroxidase) coupled reactions, with the Amplex Red Hydrogen Peroxide Assay Kit (Molecular Probes, Invitrogen, USA). The tests were carried out at 37° C., and putrescine was used as a substrate. In the HRP coupling reaction, the oxidation of 10-acetyl-3,7-dihydroxyphenoxazine (Amplex Red reagent) by hydrogen peroxide generates a fluorescent product, i.e., resorufin. Briefly, the test compounds were dissolved in dimethyl sulfoxide (DMSO) at a concentration of 20 mM. Dose-response measurements were carried out by serial dilutions in DMSO to generate a six-point curve. The upper concentration was adjusted according to the potency of the compound, and then diluted with the reaction buffer to obtain a final DMSO concentration of 1%. Purified human LOXL2 in 50 mM sodium phosphate buffer (pH7.4) was added to each well of a 96 well black plate. The test compounds dissolved in DMSO were incubated with the human LOXL2 enzyme at 37° C. for 60 minutes. After the incubation for 60 minutes, a reaction mixture containing 400 μM Amplex Red reagent, 30 mM putrescine, and 2 U/mL HRP in 50 mM sodium phosphate buffer (pH 7.4) was added to each well. Fluorescence was measured with a microplate reader (Flexstation3, Molecular Devices), under the conditions of excitation at 530 nm and emission at 590 nm, 1 hour after the addition of the mixture. Inhibition by each compound was measured as % reduction in signal, compared to the control without an inhibitor (diluted DMSO only). The data were fixed to a four-variable logistic model, and […] values were calculated using the GraphPad Prism program.
For the compound `NC/C=C(\F)Cn1nnc2c(-c3cncc(Cl)c3)cc(C(F)(F)F)cc21` [Example 201, (Z)-4-(4-(5-chloropyridin-3-yl)-6-(trifluoromethyl)-1H-benzo[d][1,2,3]triazol-1-yl)-3-fluorobut-2-en-1-amine hydrochloride], the half-maximal inhibitory concentration (IC50) came to 142 nM.
The result for `Cc1cc(-c2cc(C(F)(F)F)cc3c2nnn3C/C(F)=C/CN)n(C)n1` [Example 204, (Z)-4-[4-(1,3-dimethyl-1H-pyrazol-5-yl)-6-(trifluoromethyl)-1H-benzo[d][1,2,3]triazol-1-yl]-3-fluorobut-2-en-1-amine hydrochloride] reads 497 nM; that for `CCN(CC)S(=O)(=O)c1ccc(OC)c(-c2cc(C(=O)OC)cc3c2ncn3C/C(F)=C/CN)c1` [Example 26, methyl (Z)-1-(4-amino-2-fluorobut-2-en-1-yl)-4-(5-(N,N-diethylsulfamoyl)-2-methoxyphenyl)-1H-benzo[d]imidazol-6-carboxylate hydrochloride], 62.5 nM.
`COC(=O)c1cc(-c2cccc(S(C)(=O)=O)c2)c2nnn(C/C(F)=C/CN)c2c1` [Example 118, methyl (Z)-1-(4-amino-2-fluorobut-2-en-1-yl)-4-(3-(methylsulfonyl)phenyl)-1H-benzo[d][1,2,3]triazol-6-carboxylate hydrochloride]: the IC50 came to 34 nM.
`CS(=O)(=O)c1cccc(-c2cccc3c2nnn3C/C(F)=C/CN)c1` [Example 106, (Z)-3-fluoro-4-(4-(3-(methylsulfonyl)phenyl)-1H-benzo[d][1,2,3]triazol-1-yl)but-2-en-1-amine hydrochloride]: the IC50 is 94 nM.
`NC/C=C(\F)Cn1nnc2c(-c3cccc(S(=O)(=O)N4CCCC4)c3)cccc21` [Example 104, (Z)-3-fluoro-4-(4-(3-(pyrrolidin-1-ylsulfonyl)phenyl)-1H-benzo[d][1,2,3]triazol-1-yl)but-2-en-1-amine hydrochloride]: the IC50 was determined as 51 nM.
For `N#Cc1cc(-c2cc(CO)ccc2F)c2ncn(C/C(F)=C/CN)c2c1` [Example 185, (Z)-1-(4-amino-2-fluorobut-2-en-1-yl)-4-(2-fluoro-5-(hydroxymethyl)phenyl)-1H-benzo[d]imidazol-6-carbonitrile hydrochloride], the IC50 was 105 nM.
With `NC/C=C(\F)Cn1cnc2c(-c3cnn(CCO)c3)cc(C(F)(F)F)cc21` [Example 180, (Z)-2-(4-(1-(4-amino-2-fluorobut-2-en-1-yl)-6-(trifluoromethyl)-1H-benzo[d]imidazol-4-yl)-1H-pyrazol-1-yl)ethan-1-ol hydrochloride], the IC50 was 323 nM.
`N#Cc1cc(-c2cncc(Cl)c2)c2nnn(C/C(F)=C/CN)c2c1` [Example 209, (Z)-1-(4-amino-2-fluorobut-2-en-1-yl)-4-(5-chloropyridin-3-yl)-1H-benzo[d][1,2,3]triazol-6-carbonitrile hydrochloride]: the IC50 worked out at 86.8 nM.
Consider `COC(=O)c1cc(-c2ccc(OC)c(S(=O)(=O)NC(C)C)c2)c2nnn(C/C(F)=C/CN)c2c1` [Example 121, methyl (Z)-1-(4-amino-2-fluorobut-2-en-1-yl)-4-(3-(N-isopropylsulfamoyl)-4-methoxyphenyl)-1H-benzo[d][1,2,3]triazol-6-carboxylate hydrochloride], for which the half-maximal inhibitory concentration (IC50) is 42.9 nM.
Take `CC(C)n1nccc1-c1cc(C(F)(F)F)cc2c1ncn2C/C(F)=C/CN` [Example 178, (Z)-3-fluoro-4-(4-(1-isopropyl-1H-pyrazol-5-yl)-6-(trifluoromethyl)-1H-benzo[d]imidazol-1-yl)but-2-en-1-amine hydrochloride]: the IC50 turned out to be 463 nM.
In the case of `CONC(=O)c1cc(-c2cccc(S(=O)(=O)N3CCCC3)c2)c2nnn(C/C(F)=C/CN)c2c1` [Example 133, (Z)-1-(4-amino-2-fluorobut-2-en-1-yl)-N-methoxy-4-(3-(pyrrolidin-1-ylsulfonyl)phenyl)-1H-benzo[d][1,2,3]triazol-6-carboxamide hydrochloride], the IC50 worked out at 24.4 nM.
Under `NC/C=C(\F)Cn1nnc2c(-c3cncc(F)c3)cc(C(F)(F)F)cc21` [Example 200, (Z)-3-fluoro-4-(4-(5-fluoropyridin-3-yl)-6-(trifluoromethyl)-1H-benzo[d][1,2,3]triazol-1-yl)but-2-en-1-amine hydrochloride] stands 330 nM; under `N#Cc1cc(-c2cncc(F)c2)c2nnn(C/C(F)=C/CN)c2c1` [Example 208, (Z)-1-(4-amino-2-fluorobut-2-en-1-yl)-4-(5-fluoropyridin-3-yl)-1H-benzo[d][1,2,3]triazol-6-carbonitrile hydrochloride], 270 nM; under `CON(C)C(=O)c1cc(-c2cccc(S(=O)(=O)N(C)C)c2)c2nnn(C/C(F)=C/CN)c2c1` [Example 139, (Z)-1-(4-amino-2-fluorobut-2-en-1-yl)-4-(3-(N,N-dimethylsulfamoyl)phenyl)-N-methoxy-N-methyl-1H-benzo[d][1,2,3]triazol-6-carboxamide], 69.6 nM.
The result for `CC(=O)c1ccc(F)c(-c2cc(C(F)(F)F)cc3c2nnn3C/C(F)=C/CN)c1` [Example 197, (Z)-1-(3-(1-(4-amino-2-fluorobut-2-en-1-yl)-6-(trifluoromethyl)-1H-benzo[d][1,2,3]triazol-4-yl)-4-fluorophenyl)ethan-1-one hydrochloride] reads 308 nM; that for `COC(=O)c1cc(-c2cc(S(=O)(=O)C(F)(F)F)ccc2C)c2nnn(C/C(F)=C/CN)c2c1` [Example 128, methyl (Z)-1-(4-amino-2-fluorobut-2-en-1-yl)-4-(2-methyl-5-((trifluoromethyl)sulfonyl)phenyl)-1H-benzo[d][1,2,3]triazol-6-carboxylate hydrochloride], 94.2 nM.
Turning to `N#Cc1cc(-c2cncnc2)c2ncn(C/C(F)=C/CN)c2c1` [Example 190, (Z)-1-(4-amino-2-fluorobut-2-en-1-yl)-4-(pyrimidin-5-yl)-1H-benzo[d]imidazol-6-carbonitrile hydrochloride], the IC50 stood at 117 nM.
Under `N#Cc1cc(-c2cccnc2)c2ncn(C/C(F)=C/CN)c2c1` [Example 187, (Z)-1-(4-amino-2-fluorobut-2-en-1-yl)-4-(pyridin-3-yl)-1H-benzo[d]imidazol-6-carbonitrile hydrochloride] stands 464 nM; under `NC/C=C(\F)Cn1nnc2c(-c3cncnc3)cc(C(F)(F)F)cc21` [Example 202, (Z)-3-fluoro-4-(4-(pyrimidin-5-yl)-6-(trifluoromethyl)-1H-benzo[d][1,2,3]triazol-1-yl)but-2-en-1-amine hydrochloride], 190 nM; under `Cn1nc(C(F)(F)F)cc1-c1cc(C#N)cc2c1ncn2C/C(F)=C/CN` [Example 193, (Z)-1-(4-amino-2-fluorobut-2-en-1-yl)-4-(1-methyl-3-(trifluoromethyl)-1H-pyrazol-5-yl)-1H-benzo[d]imidazol-6-carbonitrile hydrochloride], 204 nM.
`NC/C=C(\F)Cn1nnc2c(-c3cccc(CO)c3Cl)cc(C(F)(F)F)cc21` [Example 199, (Z)-(3-(1-(4-amino-2-fluoro-2-en-1-yl)-6-(trifluoromethyl)-1H-benzo[d][1,2,3]triazol-4-yl)-2-chlorophenyl)methanol hydrochloride]: the IC50 was determined as 305 nM.
As to `CCn1nccc1-c1cc(C(F)(F)F)cc2c1nnn2C/C(F)=C/CN` [Example 203, (Z)-4-(4-(1-ethyl-1H-pyrazol-5-yl)-6-(trifluoromethyl)-1H-benzo[d][1,2,3]triazol-1-yl)-3-fluorobut-2-en-1-amine hydrochloride], the IC50 is 351 nM.
Regarding `NC/C=C(\F)Cn1nnc2c(-c3cnn(CCO)c3)cc(C(F)(F)F)cc21` [Example 205, (Z)-2-(4-(1-(4-amino-2-fluorobut-2-en-1-yl)-6-(trifluoromethyl)-1H-benzo[d][1,2,3]triazol-4-yl]-1H-pyrazol-1-yl)ethan-1-ol hydrochloride], the IC50 was found to be 182 nM.

For orientation: IC50 means the concentration that inhibits the measured activity by half.
